Among the test systems are MDA-MB-435; SN12C renal; OVCAR-5 ovarian; CCRF-CEM leukemia; OVCAR-3 ovarian; TK-10 renal; SW-620 colon; K-562 leukemia; SF-539 CNS; MCF7 breast; HOP-62 NSCLC; HT29 colon; CAKI-1 renal; MDA-N; EKVX NSCLC; SNB-19 CNS; U251 CNS; PC-3 prostate; SR leukemia.
Common to all, as to assay: growth of human tumour cells (NCI), 48 h

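Step 1: Grow cells in 96-well plates. Step 2: Expose to compound for 48 hours at 5 concentrations. Step 3: Interpolate endpoints linearly; if unreached, use highest concentration. TGI: total growth inhibition.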

In the case of `CCOc1ccc(N=NC2C(=O)N(C(=O)CC(=O)Nc3ccccc3OC)N=C2C)cc1` (stereo not given), the TGI is 4.12 µM in the assay with MDA-MB-435; greater than 100 µM in the assay with SN12C renal; greater than 100 µM with OVCAR-5 ovarian; greater than 100 µM in the assay on CCRF-CEM leukemia; greater than 100 µM in the assay with OVCAR-3 ovarian; greater than 52.3 µM in the assay with TK-10 renal. Besides, the TGI in the assay on SW-620 colon is 52.9 µM; in the assay on K-562 leukemia, greater than 100 µM; with SF-539 CNS, greater than 57.9 µM; in the assay with MCF7 breast, greater than 100 µM; with HOP-62 NSCLC it was greater than 49.5 µM; with HT29 colon, greater than 100 µM. Besides, the TGI with CAKI-1 renal is greater than 64.7 µM; with MDA-N, 6.14 µM; in the assay with EKVX NSCLC, greater than 100 µM; in the assay on SNB-19 CNS it was greater than 34.8 µM; in the assay on U251 CNS, greater than 63.4 µM; with PC-3 prostate it was greater than 100 µM.
In the case of `O=C1/C(=C\c2ccc(Cl)cc2Cl)Sc2scc(-c3cccc([N+](=O)[O-])c3)[n+]21`, the TGI in the assay on MDA-MB-435 was 27.8 µM; in the assay with SN12C renal, 18.4 µM; in the assay with OVCAR-5 ovarian, 34.4 µM; in the assay with OVCAR-3 ovarian it was 23.4 µM; with TK-10 renal, 13.3 µM; in the assay with SW-620 colon, greater than 32.2 µM. Besides, the TGI is greater than 100 µM with K-562 leukemia; 15.5 µM in the assay on MCF7 breast; 37.1 µM in the assay on HOP-62 NSCLC; 10.9 µM in the assay on HT29 colon; 8.21 µM in the assay on CAKI-1 renal; greater than 100 µM in the assay on SR leukemia. Further, the TGI with MDA-N was determined as 16.7 µM; with EKVX NSCLC, 14.3 µM; in the assay on SNB-19 CNS, 32.5 µM; in the assay on U251 CNS it was 44.1 µM; in the assay with PC-3 prostate it was 33.1 µM.
As for `CCOC(=O)c1c(N)nn2c1cc1cccccc12`, the TGI was greater than 100 µM with MDA-MB-435; greater than 100 µM with SN12C renal; greater than 100 µM in the assay on OVCAR-5 ovarian; greater than 100 µM in the assay on CCRF-CEM leukemia; greater than 100 µM with OVCAR-3 ovarian; 74.6 µM in the assay on TK-10 renal. The TGI with SW-620 colon, with SF-539 CNS, with MCF7 breast, with HOP-62 NSCLC, in the assay with HT29 colon and with CAKI-1 renal was greater than 100 µM each time. Moreover, the TGI with MDA-N is greater than 100 µM; in the assay on EKVX NSCLC, greater than 100 µM; in the assay on SNB-19 CNS, greater than 100 µM; with U251 CNS, 69.6 µM; in the assay on PC-3 prostate it was 53.7 µM.
For the compound `Cc1nc(C)c(C(=O)NNC(=O)Cc2ccccc2)cc1C(=O)NNC(=O)Cc1ccccc1`, the TGI with MDA-MB-435, with SN12C renal, with OVCAR-5 ovarian, with CCRF-CEM leukemia, in the assay with OVCAR-3 ovarian and in the assay with TK-10 renal was greater than 100 µM throughout. Further, the TGI in the assay on SW-620 colon, in the assay with K-562 leukemia, with SF-539 CNS, in the assay on MCF7 breast, with HOP-62 NSCLC and with HT29 colon was greater than 100 µM each time. Also, the TGI with CAKI-1 renal, in the assay on MDA-N, in the assay on EKVX NSCLC, in the assay with SNB-19 CNS, in the assay on U251 CNS and with PC-3 prostate was greater than 100 µM each time.
Turning to `N#Cc1ccc(Oc2nc3ccccc3nc2-c2ccccc2)cc1`, the TGI with MDA-MB-435, in the assay with SN12C renal, in the assay with OVCAR-5 ovarian, in the assay with CCRF-CEM leukemia, in the assay with OVCAR-3 ovarian and in the assay on TK-10 renal was greater than 100 µM throughout. In addition, the TGI in the assay with SW-620 colon, in the assay on K-562 leukemia, in the assay with MCF7 breast, in the assay with HOP-62 NSCLC, in the assay on HT29 colon and in the assay on CAKI-1 renal was greater than 100 µM each time. Further, the TGI in the assay on MDA-N, in the assay with EKVX NSCLC, in the assay on SNB-19 CNS, with U251 CNS and in the assay on PC-3 prostate was greater than 100 µM in each case.
Regarding `C=C1C(=O)O[C@@H]2[C@H]1C[C@@H](O)[C@H](C)[C@@](O)(C(=O)/C=C/C)[C@H]2OC(=O)C(C)CC` (stereo not given in full), the TGI with MDA-MB-435 was determined as 11.1 µM; in the assay with SN12C renal, 7.51 µM; in the assay on OVCAR-5 ovarian, 14.5 µM; with CCRF-CEM leukemia it was 0.229 µM; in the assay on OVCAR-3 ovarian, 10.4 µM; with TK-10 renal, 16.7 µM. Moreover, the TGI with SW-620 colon was 6.65 µM; in the assay on K-562 leukemia, 23.6 µM; in the assay on SF-539 CNS, 15.8 µM; in the assay on MCF7 breast, 24.9 µM; with HOP-62 NSCLC, 49.2 µM; with HT29 colon, 5.21 µM. The TGI in the assay on CAKI-1 renal is 2.91 µM; in the assay on MDA-N, 10.3 µM; in the assay with EKVX NSCLC, 27.3 µM; in the assay with SNB-19 CNS it was greater than 68.8 µM; with U251 CNS, 26.6 µM; in the assay with PC-3 prostate, 51.5 µM.
Turning to `CC(=O)OC1CCN(C(=O)c2ccccc2)CC1CC1(c2cc3ccccc3[nH]2)OCCO1` (stereo not given), the TGI in the assay with MDA-MB-435, in the assay with SN12C renal, in the assay with OVCAR-5 ovarian, with CCRF-CEM leukemia, in the assay on OVCAR-3 ovarian and in the assay with TK-10 renal was greater than 100 µM in each case. The TGI in the assay on SW-620 colon, in the assay on K-562 leukemia, with MCF7 breast, with HOP-62 NSCLC, in the assay with HT29 colon and with CAKI-1 renal was greater than 100 µM in each case. Besides, the TGI in the assay with MDA-N, in the assay on EKVX NSCLC, in the assay with SNB-19 CNS, in the assay on U251 CNS and in the assay on PC-3 prostate was greater than 100 µM throughout.
Turning to `CN(NC(=O)c1ccco1)C1=NCCN1`, the TGI in the assay with MDA-MB-435, in the assay with SN12C renal, with OVCAR-5 ovarian, in the assay with CCRF-CEM leukemia, with OVCAR-3 ovarian and with TK-10 renal was greater than 100 µM in each case. Besides, the TGI in the assay with SW-620 colon, with K-562 leukemia, with SF-539 CNS, in the assay with MCF7 breast, in the assay with HOP-62 NSCLC and with HT29 colon was greater than 100 µM throughout. Moreover, the TGI with SR leukemia, in the assay with MDA-N, with EKVX NSCLC, in the assay on SNB-19 CNS, in the assay with U251 CNS and in the assay on PC-3 prostate was greater than 100 µM each time.
Take `Cc1ccc(CC(=O)Nc2ccc(NC(=O)/C=C/NC(=O)/C=C/c3ccc(-c4ccccc4)cc3)cc2C(=O)c2ccccc2)cc1`: the TGI amounted to 10.8 µM with MDA-MB-435; 5.51 µM in the assay with SN12C renal; 5.77 µM with OVCAR-5 ovarian; 8.84 µM in the assay on CCRF-CEM leukemia; 4.32 µM in the assay with OVCAR-3 ovarian; 8.72 µM in the assay with TK-10 renal. The TGI in the assay with SW-620 colon is 3.44 µM; in the assay on K-562 leukemia, greater than 100 µM; with SF-539 CNS it was 3.67 µM; in the assay with MCF7 breast, 4.92 µM; in the assay with HOP-62 NSCLC it was 4.15 µM; in the assay with HT29 colon, 20.3 µM. Besides, the TGI was 11.3 µM in the assay on CAKI-1 renal; 6.61 µM in the assay on MDA-N; 3.58 µM in the assay on EKVX NSCLC; 16 µM with SNB-19 CNS; 4.35 µM with U251 CNS; 3.48 µM in the assay with PC-3 prostate.
Turning to `O=C(Nc1cc(C(=O)Nc2cccc(S(=O)(=O)O)c2)cc(C(=O)Nc2cccc(S(=O)(=O)O)c2)c1)c1cccc(C(=O)Nc2cc(C(=O)Nc3cccc(S(=O)(=O)O)c3)cc(C(=O)Nc3cccc(S(=O)(=O)O)c3)c2)c1`, the TGI in the assay with MDA-MB-435, in the assay on SN12C renal, with OVCAR-5 ovarian, in the assay on CCRF-CEM leukemia, in the assay on OVCAR-3 ovarian and in the assay with TK-10 renal was greater than 100 µM throughout. The TGI with SW-620 colon was greater than 100 µM; with K-562 leukemia, 58.6 µM; in the assay with SF-539 CNS it was greater than 100 µM; in the assay on MCF7 breast, greater than 100 µM; in the assay on HOP-62 NSCLC, greater than 100 µM; in the assay with HT29 colon, greater than 100 µM. Moreover, the TGI with CAKI-1 renal, in the assay with MDA-N, in the assay on EKVX NSCLC, in the assay on U251 CNS and in the assay with PC-3 prostate was greater than 100 µM throughout.
Take `CCOC(=O)Cc1nnc2c(-c3ccccc3)nc3ccccc3n12`: the TGI was greater than 100 µM in the assay on MDA-MB-435; greater than 100 µM in the assay on SN12C renal; greater than 100 µM in the assay with OVCAR-5 ovarian; greater than 100 µM with CCRF-CEM leukemia; 51.9 µM with OVCAR-3 ovarian; greater than 100 µM with TK-10 renal. The TGI with SW-620 colon is greater than 100 µM; in the assay on K-562 leukemia, greater than 100 µM; in the assay with SF-539 CNS it was greater than 100 µM; in the assay on MCF7 breast, greater than 100 µM; with HOP-62 NSCLC it was 27.6 µM; in the assay with HT29 colon, greater than 100 µM. The TGI was greater than 100 µM in the assay on SR leukemia; greater than 100 µM in the assay on MDA-N; 79.8 µM with EKVX NSCLC; 62.1 µM in the assay with SNB-19 CNS; 48.4 µM with U251 CNS; greater than 100 µM in the assay with PC-3 prostate.
As for `O=C(/C=C(\O)c1ccc(Cl)cc1)C(=O)N=Nc1c(O)[nH]c2ccc(Br)cc12`, the TGI is greater than 100 µM in the assay with MDA-MB-435; greater than 100 µM in the assay on SN12C renal; greater than 100 µM in the assay on OVCAR-5 ovarian; 95.9 µM in the assay with OVCAR-3 ovarian; greater than 100 µM in the assay with TK-10 renal; greater than 100 µM with SW-620 colon. For the same compound, the TGI in the assay on K-562 leukemia is 45.8 µM; in the assay on SF-539 CNS, greater than 100 µM; in the assay with MCF7 breast, greater than 100 µM; in the assay with HOP-62 NSCLC it was greater than 100 µM; in the assay with HT29 colon it was greater than 100 µM; in the assay on CAKI-1 renal it was greater than 100 µM. In addition, the TGI with MDA-N, with EKVX NSCLC, with SNB-19 CNS, with U251 CNS and with PC-3 prostate was greater than 100 µM each time.

These data come from PubChem BioAssay (NCI).
